Data taken from patent US20190330197A1, “SUBSTITUTED NAPHTHALENE DIIMIDES AND THEIR USE” (UCL Business PLC, priority 2015, published 2019).

Assays:
[1] = system: Tloop (representing duplex DNA); assay: FRET assay, Tloop duplex DNA; format: binding; settings: compound at 1 μM, 60 mM potassium cacodylate buffer pH 7.4
Description: The ability of the naphthalene diimide compounds to stabilize quadruplex DNA sequences was investigated using a fluorescence resonance energy transfer (FRET) assay modified to be used as a high-throughput screen in a 96-well format. Several quadruplex sequences were studied (including the human telomeric G-quadruplex DNA sequence 5′-FAM-d(GGG[TTAGGG]3)-TAMRA-3′ and the duplex sequence 5′-FAM-d[…]-HEG-[…]-TAMRA-3′ (HEG linker: [(—CH2—CH2—O—)6.
The labelled oligonucleotides have attached to them the donor fluorophore FAM: 6-carboxyfluorescein and the acceptor fluorophore TAMRA: 6-carboxytetramethylrhodamine. The FRET probe sequences were diluted from stock to the correct concentration (400 nM) in a 60 mM potassium cacodylate buffer (pH 7.4) and then annealed by heating to 85° C. for 10 min, followed by cooling to room temperature in the heating block. The compound was stored as a 10 mM stock solution in DMSO; final solutions (at 2× concentration) were prepared using 10 mM HCl in the initial 1:10 dilution, after which 60 mM potassium cacodylate buffer (pH 7.4) was used in all subsequent steps. The maximum HCl concentration in the reaction volume (at a ligand concentration of 20 μM) is thus 200 μM, well within the range of the buffer used. Relevant controls were also performed to check for interference with the assay. 96-Well plates (MJ Research, Waltham, Mass.) were prepared by aliquoting 50 μl of the annealed DNA into each well, followed by 50 μl of the compound solutions. Measurements were made on a DNA Engine Opticon (MJ Research) with excitation at 450-495 nm and detection at 515-545 nm. Fluorescence readings were taken at intervals of 0.5° C. in the range 30-100° C., with a constant temperature being maintained for 30 s prior to each reading to ensure a stable value. Final analysis of the data was carried out using a script written in the program Origin 7.0 (OriginLab Corp., Northampton, Mass.). The advanced curve-fitting function in Origin 7.0 was used for calculation of ΔTm values. All determinations were performed in triplicate or better. Esds in ΔTm are ±0.1° C.

[2] = system: MIA-PaCa2 cells; assay: RNA-seq gene expression changes in treated MIA-PaCa2 cells; format: cell-based, human
Description: Cell lines were purchased from American Type Culture Collection (ATCC) and stored under liquid nitrogen. Cells were maintained in monolayer culture T75 (75 cm2 flasks) in humidified 5% CO2 atmosphere at 37° C. Cells were maintained in appropriate medium according to (ATCC) with necessary supplements including L-glutamine (Thermo Fisher Scientific Cat. No. 25030024), penicillin-streptomycin solution Hybrid-Max (Sigma Cat. No. P7539) and fetal bovine serum (FBS, Thermo Fisher Scientific Cat. No. 10270106). Cells were passaged at 80-90% confluence.
MIA-PaCa2 cells were seeded 48 hours prior to incubation, in MatTek 35 mm glass bottom dishes. Three incubation times for the compound 4c were examined: 0, 6 and 24 hrs. For RNA extraction cells (a maximum of 1×10^7 cells) were harvested by trypsinization following rinsing the cells twice in 1×PBS (without calcium chloride and magnesium chloride, purchased from Sigma Cat. No. D1408). After neutralising the medium with an equal volume of medium to trypsin cells were transferred to a sterile centrifuge tube for centrifugation for 4 minutes at 400 rpm at room temperate in order to pellet the cells. After removing the medium and trypsin following centrifugation RNA was extracted from the pellet of cells using the RNeasy Mini Kit by QIAGEN (Cat. no. 74104). RNA quality was checked by use of the NanoDrop 2000 Spectrophotometer, and a minimum quantity of ca 500 ng of RNA at >25 ng/μl concentration per replicate was verified.
RNA-Seq sequencing studies were performed by the UCL Genomics Facility using an Illumina NextSeq 500 instrument, and data obtained on RNA expression levels of all individual genes in the genomes of the cells analysed, relative to the control cells at 0 hr exposure. Four replicates were used for each time-point, thus a total of 12 individual genomes were analysed and statistics obtained for each time-point.
Data has been taken from RNA-seq data from treated MIA-PaCa2 cells, showing log-fold expression changes for genes selected from those showing the most significant down-regulation of expression as measured by RNA levels.

O=C1c2ccc3c4c(c(NCCN5CCCC5)cc(c24)C(=O)N1CCCN1CCOCC1)C(=O)N(CCCN1CCOCC1)C3=O [Compound 4c, 2,7-bis(3-morpholinopropyl)-4-((2-(pyrrolidin-1-yl)ethyl)amino)benzo[Imn][3,8]phenanthroline-1,3,6,8(2H,7H)-tetraone]
ΔTm Tloop [1]: 0.6 °C
AVIL log-fold change relative to t = 0 hrs ([2]; 4c at 6 hrs): 3.0
CBFA2T3 log-fold change relative to t = 0 hrs ([2]; 4c at 6 hrs): −2.8
FLG log-fold change relative to t = 0 hrs ([2]; 4c at 6 hrs): 4.0
ITGA1 log-fold change relative to t = 0 hrs ([2]; 4c at 6 hrs): 4.5
ITGAM log-fold change relative to t = 0 hrs ([2]; 4c at 6 hrs): 7.0
PRDM16 log-fold change relative to t = 0 hrs ([2]; 4c at 6 hrs): −2.8
SHANK2 log-fold change relative to t = 0 hrs ([2]; 4c at 6 hrs): −1.9
ST14 log-fold change relative to t = 0 hrs ([2]; 4c at 6 hrs): 5.6
TP73 log-fold change relative to t = 0 hrs ([2]; 4c at 6 hrs): −2.4
TREX1 log-fold change relative to t = 0 hrs ([2]; 4c at 6 hrs): −8.3
ZNF469 log-fold change relative to t = 0 hrs ([2]; 4c at 6 hrs): −3.4
AVIL log-fold change relative to t = 0 hrs ([2]; 4c at 24 hrs): 0.5
CBFA2T3 log-fold change relative to t = 0 hrs ([2]; 4c at 24 hrs): −2.8
FLG log-fold change relative to t = 0 hrs ([2]; 4c at 24 hrs): 0.7
ITGA1 log-fold change relative to t = 0 hrs ([2]; 4c at 24 hrs): 0.4
ITGAM log-fold change relative to t = 0 hrs ([2]; 4c at 24 hrs): 2.6
PRDM16 log-fold change relative to t = 0 hrs ([2]; 4c at 24 hrs): −3.5
SHANK2 log-fold change relative to t = 0 hrs ([2]; 4c at 24 hrs): −2.0
ST14 log-fold change relative to t = 0 hrs ([2]; 4c at 24 hrs): 2.5
TP73 log-fold change relative to t = 0 hrs ([2]; 4c at 24 hrs): −1.2
TREX1 log-fold change relative to t = 0 hrs ([2]; 4c at 24 hrs): −2.5
ZNF469 log-fold change relative to t = 0 hrs ([2]; 4c at 24 hrs): −3.2
extent of gene expression changes ([2]; treated MIA-PaCa2 cells): changes in gene expression in a comparatively small number of genes
